Results reported in publication PMC11062899, “De novo development of small cyclic peptides that are orally bioavailable” (Nature Chemical Biology, 2023).
Values joined by “and” are separate entries in the source; they are usually repeats but may differ in a detail not shown here. Equal values may be shown once. Read-outs that look alike come from different tables or passages of the source.

Columns and labels:
human α-thrombin = human α-thrombin (Homo sapiens, UniProt P00734); test: Protease inhibition, Ki for human α-thrombin (fluorogenic substrate Z-Gly-Gly-Arg-AMC); type: biochemical; conditions: for slope normalized to DMSO, human alpha thrombin inhibition: replicates R1-R3
In short: (§1)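 Ki derived through Cheng–Prusoff from IC50s (four-parameter logistic fit) against activity of peptide-free controls. Product fluorescence was read every 3 min over 30 min at 25 °C, substrate Z-Gly-Gly-Arg-AMC at 50 μM. Enzyme was 2 nM human or 3 nM rat α-thrombin, pH 7.4 buffer.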

rat α-thrombin = molecular target: T1, rat α-thrombin (Rattus norvegicus, UniProt P18292); test: Protease inhibition, Ki for rat α-thrombin (fluorogenic substrate Z-Gly-Gly-Arg-AMC); type: biochemical; conditions: for slope normalized to DMSO, rat alpha thrombin inhibition: replicates R1-R3
T1 construct: rat α-thrombin (Molecular Innovations) were used at final concentrations of 2 nM and 3 nM; purchased Molecular Innovations
In short: as §1

[1] = Passive artificial membrane permeability (PAMPA);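 for Permeability% Average: top well sample relative to theoretical equilibrium sample by TIC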

For `O=C1C[C@H]2CCCN2C(=O)[C@H](Cc2ccccc2)NC(=O)[C@@H](NC(=O)c2ccc(Cl)cc2F)CCC=CCCCCN1` [compound 45], the Ki (human α-thrombin; average of R1-R3, read-out: Ki Average, human alpha thrombin inhibition) was 204 nM, the IC50 (human α-thrombin; individual replicates R1-R3, read-out: IC50, human alpha thrombin inhibition) was 273 nM and 252 nM and 268 nM and the Ki (human α-thrombin; individual replicates R1-R3, read-out: Ki, human alpha thrombin inhibition) was 210 nM (2×) and 194 nM (2×) and 207 nM (2×). For the same compound, the “slope normalized to DMSO, human alpha thrombin inhibition” value (human α-thrombin; peptide 1.00E+02 uM) was 11.3 and 11.6 and 10.6, the “slope normalized to DMSO, human alpha thrombin inhibition” value (human α-thrombin; peptide 1.19E-05 uM) was 102.6 and 106.2 and 105.7 and the “slope normalized to DMSO, human alpha thrombin inhibition” value (human α-thrombin; peptide 1.22E-02 uM) was 98.0 and 95.4 and 97.5. The “slope normalized to DMSO, human alpha thrombin inhibition” value (human α-thrombin; peptide 1.25E+01 uM) was 13.9 and 11.8 and 11.3, the “slope normalized to DMSO, human alpha thrombin inhibition” value (human α-thrombin; peptide 1.53E-03 uM) was 101.7 and 103.3 and 104.5 and the “slope normalized to DMSO, human alpha thrombin inhibition” value (human α-thrombin; peptide 1.56E+00 uM) was 26.6 and 25.5 (2×). For the same compound, the “slope normalized to DMSO, human alpha thrombin inhibition” value (human α-thrombin; peptide 1.91E-04 uM) was 103.0 and 99.2 and 105.0, the “slope normalized to DMSO, human alpha thrombin inhibition” value (human α-thrombin; peptide 1.95E-01 uM) was 64.4 and 63.8 and 63.5 and the “slope normalized to DMSO, human alpha thrombin inhibition” value (human α-thrombin; peptide 2.38E-05 uM) was 102.9 and 103.4 and 104.0. The “slope normalized to DMSO, human alpha thrombin inhibition” value (human α-thrombin; peptide 2.44E-02 uM) was 93.3 and 91.7 and 93.0, the “slope normalized to DMSO, human alpha thrombin inhibition” value (human α-thrombin; peptide 2.50E+01 uM) was 12.2 and 11.9 and 11.6 and the “slope normalized to DMSO, human alpha thrombin inhibition” value (human α-thrombin; peptide 3.05E-03 uM) was 101.3 and 101.9 and 102.4. The “slope normalized to DMSO, human alpha thrombin inhibition” value (human α-thrombin; peptide 3.12E+00 uM) was 19.4 (2×) and 18.4, the “slope normalized to DMSO, human alpha thrombin inhibition” value (human α-thrombin; peptide 3.81E-04 uM) was 103.1 and 102.3 and 104.4 and the “slope normalized to DMSO, human alpha thrombin inhibition” value (human α-thrombin; peptide 3.91E-01 uM) was 49.6 and 45.7 and 49.0. For the same compound, the “slope normalized to DMSO, human alpha thrombin inhibition” value (human α-thrombin; peptide 4.77E-05 uM) was 101.9 and 103.1 and 105.2, the “slope normalized to DMSO, human alpha thrombin inhibition” value (human α-thrombin; peptide 4.88E-02 uM) was 85.5 and 84.9 and 86.4 and the “slope normalized to DMSO, human alpha thrombin inhibition” value (human α-thrombin; peptide 5.00E+01 uM) was 11.7 and 11.4 and 7.8. For the same compound, the “slope normalized to DMSO, human alpha thrombin inhibition” value (human α-thrombin; peptide 6.10E-03 uM) was 99.7 and 99.5 and 102.0, the “slope normalized to DMSO, human alpha thrombin inhibition” value (human α-thrombin; peptide 6.25E+00 uM) was 15.9 and 15.6 and 14.9 and the “slope normalized to DMSO, human alpha thrombin inhibition” value (human α-thrombin; peptide 7.63E-04 uM) was 102.4 (2×) and 103.3. For the same compound, the “slope normalized to DMSO, human alpha thrombin inhibition” value (human α-thrombin; peptide 7.81E-01 uM) was 36.6 and 35.0 and 35.1, the “slope normalized to DMSO, human alpha thrombin inhibition” value (human α-thrombin; peptide 9.54E-05 uM) was 103.4 and 102.3 and 101.0 and the “slope normalized to DMSO, human alpha thrombin inhibition” value (human α-thrombin; peptide 9.77E-02 uM) was 76.3 and 76.5 and 77.1. For the same compound, the Ki (rat α-thrombin; average of R1-R3, read-out: Ki Average, rat alpha thrombin inhibition) was 36.4 nM, the IC50 (rat α-thrombin; individual replicates R1-R3, read-out: IC50, rat alpha thrombin inhibition) was 67 nM and 66.1 nM and 64.2 nM and the Ki (rat α-thrombin; individual replicates R1-R3, read-out: Ki, rat alpha thrombin inhibition) was 37.1 nM and 36.6 nM and 35.6 nM. The “slope normalized to DMSO, rat alpha thrombin inhibition” value (rat α-thrombin; peptide 1.00E+02 uM) was 6.9 and 7.8 and 7.9, the “slope normalized to DMSO, rat alpha thrombin inhibition” value (rat α-thrombin; peptide 1.19E-05 uM) was 99.4 and 99.8 and 100.7 and the “slope normalized to DMSO, rat alpha thrombin inhibition” value (rat α-thrombin; peptide 1.22E-02 uM) was 80.5 and 81.1 and 80.7. For the same compound, the “slope normalized to DMSO, rat alpha thrombin inhibition” value (rat α-thrombin; peptide 1.25E+01 uM) was 8.5 and 8.3 (2×), the “slope normalized to DMSO, rat alpha thrombin inhibition” value (rat α-thrombin; peptide 1.53E-03 uM) was 95.1 and 94.7 (2×) and the “slope normalized to DMSO, rat alpha thrombin inhibition” value (rat α-thrombin; peptide 1.56E+00 uM) was 12.6 and 12.3 and 12.5. For the same compound, the “slope normalized to DMSO, rat alpha thrombin inhibition” value (rat α-thrombin; peptide 1.91E-04 uM) was 97.1 (2×) and 95.3, the “slope normalized to DMSO, rat alpha thrombin inhibition” value (rat α-thrombin; peptide 1.95E-01 uM) was 34.2 and 33.8 and 33.2 and the “slope normalized to DMSO, rat alpha thrombin inhibition” value (rat α-thrombin; peptide 2.38E-05 uM) was 93.5 and 98.9 and 98.6. The “slope normalized to DMSO, rat alpha thrombin inhibition” value (rat α-thrombin; peptide 2.44E-02 uM) was 71.8 and 70.1 and 71.0, the “slope normalized to DMSO, rat alpha thrombin inhibition” value (rat α-thrombin; peptide 2.50E+01 uM) was 8.3 and 8.0 and 8.8 and the “slope normalized to DMSO, rat alpha thrombin inhibition” value (rat α-thrombin; peptide 3.05E-03 uM) was 90.8 and 91.5 and 91.2. The “slope normalized to DMSO, rat alpha thrombin inhibition” value (rat α-thrombin; peptide 3.12E+00 uM) was 10.1 (2×) and 10.3, the “slope normalized to DMSO, rat alpha thrombin inhibition” value (rat α-thrombin; peptide 3.81E-04 uM) was 97.2 and 95.5 and 95.9 and the “slope normalized to DMSO, rat alpha thrombin inhibition” value (rat α-thrombin; peptide 3.91E-01 uM) was 22.7 and 22.8 and 22.5. The “slope normalized to DMSO, rat alpha thrombin inhibition” value (rat α-thrombin; peptide 4.77E-05 uM) was 97.5 and 97.4 and 98.2, the “slope normalized to DMSO, rat alpha thrombin inhibition” value (rat α-thrombin; peptide 4.88E-02 uM) was 57.9 and 58.1 and 57.0 and the “slope normalized to DMSO, rat alpha thrombin inhibition” value (rat α-thrombin; peptide 5.00E+01 uM) was 8.1 (2×) and 8.0. The “slope normalized to DMSO, rat alpha thrombin inhibition” value (rat α-thrombin; peptide 6.10E-03 uM) was 75.2 and 85.9 and 86.8, the “slope normalized to DMSO, rat alpha thrombin inhibition” value (rat α-thrombin; peptide 6.25E+00 uM) was 9.3 (2×) and 10.3 and the “slope normalized to DMSO, rat alpha thrombin inhibition” value (rat α-thrombin; peptide 7.63E-04 uM) was 94.5 (2×) and 95.4. For the same compound, the “slope normalized to DMSO, rat alpha thrombin inhibition” value (rat α-thrombin; peptide 7.81E-01 uM) was 16.5 and 16.1 and 16.2, the “slope normalized to DMSO, rat alpha thrombin inhibition” value (rat α-thrombin; peptide 9.54E-05 uM) was 96.4 and 97.0 and 98.4 and the “slope normalized to DMSO, rat alpha thrombin inhibition” value (rat α-thrombin; peptide 9.77E-02 uM) was 46.4 and 46.1 and 46.7. The “PAMPA permeability: % permeability” value ([1]; 50 μM, 12–18 h, acceptor concentration relative to equilibrium) was 66 ± 14%, the “Permeability% (single replicates R1–R3)” value ([1]; 50 μM, 12 h (Fig. 6d)) was 56.67% and 58.98% and 81.87% and the “Permeability% Average” value ([1]; 50 μM, 12 h (Fig. 6d)) was 65.8%. It also gave a Papp at 50 μM ([1]; PAMPA, pH 7.4) of 10.7 ×10⁻⁶ cm/s.
